Our source for the EC50 and AC50 values is patent US12344610B2, “APOL1 inhibitors and methods of use” (Maze Therapeutics, Inc., priority 2022, dated 2025).

What all share (format): cell-based
For experiment [1], the system named is HEK293 clonal cell line overexpressing APOL1 G1. The experiment is described as follows: APOL1 G1 HEK293 cell rescue assay (Example B3). To be noted: Homo sapiens, HEK293, HEK293 clonal line overexpressing APOL1 G1; geometric mean of at least 2 runs; † = single run; ¥ = concentration at 50% rescue estimated (no sigmoidal curve). A digest of the protocol: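 HEK293 clonal line overexpressing APOL1 G1; EC50 is half-maximal reversal of APOL1-induced cell death. Values are the geometric mean of ≥2 runs on separate days, each run the average of duplicate wells. Where no sigmoidal curve could be fitted, the concentration giving 50% rescue was estimated.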

The subject of experiment [2] is HEK293 cells overexpressing APOL1 G2. Kind of experiment: APOL1 G2 HEK293 cell rescue assay (reversal of cell death caused by overexpression of APOL1). To be noted: Homo sapiens, HEK293, HEK293 overexpressing APOL1 G2; geometric mean of at least 2 assay runs; † = single assay run. The method, boiled down: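 EC50 is the half-maximal effective concentration for reversing cell death driven by APOL1 G2 overexpression in HEK293 cells. Reported as geometric mean of at least 2 runs on separate days, each run averaging duplicate wells per plate; some values from a single run.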

The target in a further experiment is T1, APOL1 G2 (Homo sapiens, UniProt O14791, DEL388-389).
T1 construct: expressed in transfected cells; host or cells: HEK293 T-REx clonal line stably expressing GCaMP6f (HEK T-REx/GCaMP6f/APOL1 G2 K6.3), doxycycline induced
T1 sequence (O14791 with tags, fused parts or gaps DEL388-389): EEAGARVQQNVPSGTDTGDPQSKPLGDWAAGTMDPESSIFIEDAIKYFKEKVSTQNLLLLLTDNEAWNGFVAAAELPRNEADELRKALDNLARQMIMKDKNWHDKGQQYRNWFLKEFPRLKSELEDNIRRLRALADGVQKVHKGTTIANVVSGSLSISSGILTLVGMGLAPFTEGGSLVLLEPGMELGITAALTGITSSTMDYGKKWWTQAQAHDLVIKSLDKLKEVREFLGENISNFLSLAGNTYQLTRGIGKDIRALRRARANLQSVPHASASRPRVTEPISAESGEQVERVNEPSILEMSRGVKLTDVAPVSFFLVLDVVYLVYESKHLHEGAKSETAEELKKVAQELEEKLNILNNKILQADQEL
The experiment is described as follows: APOL1-mediated calcium transport (calcium influx) assay, HEK T-REx/GCaMP6f/APOL1 G2 K6.3 cells, FLIPR TETRA. To be noted: prevention of calcium influx; geometric mean of at least 2 assay runs; † = average of a technical replicate from a single assay run. On the procedure:
A HEK293 clonal cell line was generated to stably express GCaMP6f, a genetically encoded calcium indicator, and inducibly express APOL1 G2 (HEK T-REx/GCaMP6f/APOL1 G2 K6.3). Cells were maintained in the following standard complete medium: DMEM with 4.5 g/L glucose and sodium pyruvate (BioWhittaker, Lonza, BE12-614F), supplemented with 10% FBS Performance Plus (Gibco, 16000044), 1% penicillin-streptomycin (BioWhittaker, DE17-602E), 2 mM ultraglutamine-1 (BioWhittaker cat. BE 17-605/U1), 50 μg/mL Zeocin (InvivoGen, ant-zn), 2.5 μg/mL Blasticidin (InvivoGen, ant-bl-5), and 25 μg/mL Hygromycin (InvivoGen, ant-hg). Standard propagation conditions consisted of plating 9×10^6, 4×10^6, 2×10^6 cells in a T225 flasks to be processed after 2, 3, or 4 days, respectively.
A source plate was generated containing 20 serially diluted compounds in DMSO (duplicate 8-point dose response). Next, 0.8 μL of compounds were transferred from the source plate to a destination plate prefilled with 79.2 μL of Ca^2+ free Tyrode's buffer (130 mM NaCl, 5 mM KCl, 1 mM MgCl2, 5 mM NaHCO3, 20 mM HEPES at pH 7.4). The destination plate was placed on a plate shaker (5 seconds at 2000 rpm) to mix. […] All transfer and mixing steps were conducted with an CyBi®-Well dispenser.
Cells were split by gently washing with DPBS (Euroclone, ECB4004L), followed by a 5-minute incubation (humidified, 37° C. with 5% CO2) with trypsin-EDTA solution (Euroclone, ECB3052D). Detached cells were diluted with standard complete medium without selective agents, counted, and plated in a 384 MTP microplate (GR4332CPL, Twin Helix) (10,000 cells/well in 25 μl/well) using a MATRIX WellMate dispenser. Plates were placed into a humidified incubator (37° C. with 5% CO2) overnight. The following day, 20 μL of doxycycline (Sigma, D9891) at 20 ng/mL in standard complete medium was added to cells with a CyBi® Drop dispenser to induce APOL1 G2 expression. After a 6-hour incubation (humidified, 37° C. with 5% CO2), cells were washed 3 times with Ca^2+ free Tyrode's Buffer (130 mM NaCl, 5 mM KCl, 1 mM MgCl2, 5 mM NaHCO3, 20 mM HEPES at pH 7.4) using a BIOTEK Microplate washer, such that 10 μL of buffer remained in each well after the final wash. Assay plates were then stored at room temperature for 10 minutes. Next, 10 μL of diluted compounds were transferred to the assay plate from the 2× compound plate using a CyBi®-Well dispenser. Compound incubation was then carried out at room temperature for 10 minutes. The assay plate was transferred to the FLIPR^TETRA and 20 μL of 10 mM Ca^2+ (final concentration=5 mM) Tyrode's buffer was injected.
Unless otherwise specified, AC50 and values are reported as the geometric mean of at least 2 assay runs on separate days. Each run represents the average of a technical replicate, where each compound was assayed twice in the same plate. A superscript t symbol indicates a value from the average of a technical replicate from a single assay run, where each compound was assayed twice in the same plate.
The AC50 values in Table 39 below reflect the compound's ability to prevent calcium influx by inhibiting APOL1. […] Compounds in Table 39 are referred to by the corresponding Compound Number in Table 1, which is also referred to in the synthetic examples. When one or more of the numbered compounds are identified by stereochemistry (for example, (R)- or (S)-), the specific stereoisomer for which data is provided in Table 39 may be identified by the elution order of such compound as described in the synthetic examples. For example, Compounds 39 and 40 are associated with Step 5 of Example 13, where Compound 39 is the first eluting enantiomer, and Compound 40 is the second eluting enantiomer in the chiral separation of Compound 38. For Table 39 below, n/a represents “not available”.

In general, EC50 refers to the concentration giving half of the maximal effect. As usually defined, the AC50 is the concentration at which the activity in the assay is half-maximal. As to `CS(=O)(=O)c1ccc(OCCN2CCC3(CC2)C(=O)Nc2c(Cl)cc(Cl)cc23)cc1` [Compound 7, 5,7-dichloro-1′-[2-(4-methanesulfonylphenoxy)ethyl]-1,2-dihydrospiro[indole-3,4′-piperidin]-2-one], the values for the EC50 in experiment [1] and in experiment [2] were 764 nM and 279 nM, respectively. Further, the half-maximal activity concentration (AC50) at APOL1 G2 came out at 601 nM.

`CS(=O)(=O)c1ccc(OCCN2CCC3(CC2)C(=O)Nc2c(Cl)cc(C#N)cc23)cc1` [Compound 8, 7-chloro-1′-[2-(4-methanesulfonylphenoxy)ethyl]-2-oxo-1,2-dihydrospiro[indole-3,4′-piperidine]-5-carbonitrile]: the half-maximal effective concentration (EC50) is 1440 nM in experiment [1] and 598 nM in experiment [2]. Moreover, the AC50 at APOL1 G2 is 833 nM.

As for `CS(=O)(=O)c1ccc(OCCN2CCC3(CC2)C(=O)N([C@H]2C[C@@H](O)C2)c2ccccc23)cc1` [Compound 19, 1′-[2-(4-methanesulfonylphenoxy)ethyl]-1-[(cis)-3-hydroxycyclobutyl]-1,2-dihydrospiro[indole-3,4′-piperidin]-2-one], the EC50 in experiment [1] is 4810 nM; in experiment [2] it was 794 nM. Moreover, the AC50 at APOL1 G2 turned out to be 481 nM.

Turning to `COCCN1C(=O)C2(CCN(CCOc3ccc(S(C)(=O)=O)cc3)CC2)c2ccccc21` [Compound 21, 1′-[2-(4-methanesulfonylphenoxy)ethyl]-1-(2-methoxyethyl)-1,2-dihydrospiro[indole-3,4′-piperidin]-2-one], the EC50 in experiment [1] is over 14400 nM; in experiment [2], 1270 nM. Moreover, on APOL1 G2, the AC50 is under 213 nM.

As to `CS(=O)(=O)c1ccc(OCCN2CCC3(CC2)C(=O)N(C2COC2)c2ccc(Cl)cc23)cc1` [Compound 22, 5-chloro-1′-(2-(4-(methylsulfonyl)phenoxy)ethyl)-1-(oxetan-3-yl)spiro[indoline-3,4′-piperidin]-2-one], the half-maximal effective concentration (EC50) was 580 nM in experiment [1] and 232 nM in experiment [2]. At APOL1 G2, the AC50 was 306 nM.

For the compound `CC(COc1ccc(S(C)(=O)=O)cc1)N1CCC2(CC1)C(=O)Nc1ccccc12` (stereo not drawn) [Compound 28, 1′-(1-(4-(methylsulfonyl)phenoxy)propan-2-yl)spiro[indoline-3,4′-piperidin]-2-one], the results for the EC50 in experiment [1] and in experiment [2] were 655 nM and 799 nM, respectively. For the same compound, the AC50 at APOL1 G2 is under 434 nM.

With `CN1C(=O)C2(CCN(CCOc3ccc4ncn(C)c(=O)c4c3)CC2)c2ccccc21` [Compound 29, 1-methyl-1′-{2-[(3-methyl-4-oxo-3,4-dihydroquinazolin-6-yl)oxy]ethyl}-1,2-dihydrospiro[indole-3,4′-piperidin]-2-one], the results for the EC50 in experiment [1] and in experiment [2] were 5560 nM and 1420 nM, respectively. Besides, at APOL1 G2, the AC50 stood at 586 nM.

Turning to `CN1Cc2cc(OCCN3CCC4(CC3)C(=O)N(C)c3ccccc34)ccc2C1=O` [Compound 30, 1-methyl-1′-{2-[(2-methyl-1-oxo-2,3-dihydro-1H-isoindol-5-yl)oxy]ethyl}-1,2-dihydrospiro[indole-3,4′-piperidin]-2-one], the EC50 in experiment [1] is over 22500 nM; in experiment [2], 1480 nM. Besides, the AC50 on APOL1 G2 amounted to 409 nM.

With `CN1C(=O)C2(CCN(CCOc3ccc(-c4cnn(C)c4)cc3)CC2)c2ccccc21` [Compound 31, 1-methyl-1′-{2-[4-(1-methyl-1H-pyrazol-4-yl)phenoxy]ethyl}-1,2-dihydrospiro[indole-3,4′-piperidin]-2-one], the EC50 in experiment [1] is 1570 nM; in experiment [2] it was 810 nM. On APOL1 G2, the AC50 was determined as 370 nM.

Regarding `CN1C(=O)C2(CCN(CCOc3ccc4c(c3)CCS4(=O)=O)CC2)c2ccccc21` [Compound 32, 5-(2-{1-methyl-2-oxo-1,2-dihydrospiro[indole-3,4′-piperidin]-1′-yl}ethoxy)-2,3-dihydro-1λ^6-benzothiophene-1,1-dione], the EC50 in experiment [1] was 1860 nM; in experiment [2] it was 785 nM. In addition, the AC50 on APOL1 G2 came out at 262 nM.

On to `CN1C(=O)Cc2cc(OCCN3CCC4(CC3)C(=O)N(C)c3ccccc34)ccc21` [Compound 33, 1-methyl-1′-{2-[(1-methyl-2-oxo-2,3-dihydro-1H-indol-5-yl)oxy]ethyl}-1,2-dihydrospiro[indole-3,4′-piperidin]-2-one], for which the EC50 was over 3470 nM in experiment [1] and 1070 nM in experiment [2]. The AC50 at APOL1 G2 is 218 nM.

For `CN1C(=O)C2(CCN(CCOc3ccc4nccnc4c3)CC2)c2ccccc21` [Compound 34, 1-methyl-1′-[2-(quinoxalin-6-yloxy)ethyl]-1,2-dihydrospiro[indole-3,4′-piperidin]-2-one], the EC50 in experiment [1] was over 1960 nM; in experiment [2], 1330 nM. Further, at APOL1 G2, the AC50 turned out to be 168 nM.

As for `CN1C(=O)C2(CCN(CCOc3ccc(N4CCCC4=O)cc3)CC2)c2ccccc21` [Compound 37, 1-methyl-1′-{2-[4-(2-oxopyrrolidin-1-yl)phenoxy]ethyl}-1,2-dihydrospiro[indole-3,4′-piperidin]-2-one], the EC50 was 692 nM in experiment [1] and 1280 nM in experiment [2]. For the same compound, the AC50 on APOL1 G2 was 327 nM.

For `CC(c1ccc(OCCN2CCC3(CC2)C(=O)Nc2ccc(Cl)cc23)cc1)S(C)(=O)=O` (stereo not drawn) [Compound 38, 5-chloro-1′-{2-[4-(1-methanesulfonylethyl)phenoxy]ethyl}-1,2-dihydrospiro[indole-3,4′-piperidin]-2-one], the EC50 is 222 nM in experiment [1] and 59 nM in experiment [2]. Also, the AC50 at APOL1 G2 stood at 307 nM.

With `CS(=O)(=O)CCCS(=O)(=O)c1ccc(OCCN2CCC3(CC2)C(=O)Nc2ccc(Cl)cc23)cc1` [Compound 41, 5-chloro-1′-{2-[4-(3-methanesulfonylpropanesulfonyl)phenoxy]ethyl}-1,2-dihydrospiro[indole-3,4′-piperidin]-2-one], the EC50 in experiment [1] was 307 nM; in experiment [2], 97 nM. Besides, the half-maximal activity concentration (AC50) at APOL1 G2 was found to be 709 nM.

On to `NC(=O)c1ccc(OCCN2CCC3(CC2)C(=O)Nc2ccc(Cl)cc23)cn1` [Compound 47, 5-(2-{5-chloro-2-oxo-1,2-dihydrospiro[indole-3,4′-piperidin]-1′-yl}ethoxy)pyridine-2-carboxamide], for which the 50% effective concentration (EC50) was 399 nM in experiment [1] and 148 nM in experiment [2]. The AC50 at APOL1 G2 is 641 nM.
